# Data: US12465578B2, “Substituted alpha-ethyl phenylalkylamines” (Alexander Shulgin Research Institute, Inc., priority 2021, dated 2025)
# Assay: In vitro metabolic stability: percent of compound remaining in human liver microsomes
# Assay type: in vitro ADME
# Conditions: for Percent of Compound Remaining Over Time / Dunnett's Multiple Comparison Test Mean Diff. (percent remaining, 2C-B minus compound): human liver microsomes; for rate of metabolism compared with 2C-B: human liver microsomes, 15, 30, 45 and 60 minutes of incubation; for rate of metabolism compared with 2C-B / Dunnett's Multiple Comparison Test Mean Diff. (percent remaining, 2C-B minus compound): 2C-B as control drug; for Dunnett's Multiple Comparison Test Mean Diff. (percent remaining, 2C-B minus compound): one-way ANOVA with Dunnett's post-test
# Protocol: A high-throughput assay is used to determine metabolic stability of disclosed compounds and undeuterated analogs thereof in various matrices, including human liver microsomes, using LCMS analysis to quantify the percent compound remaining after incubation. Briefly, the disclosed compound is mixed with liver microsomes and activated. Following this incubation, acetonitrile is added to terminate the reaction. Then, the samples are centrifuged and the supernatant is dried. The residue is reconstituted and analyzed using liquid chromatography-mass spectrometry. Pharmacokinetic parameters are calculated using a noncompartmental model. The half-life (t1/2) is estimated from the slope of the initial linear range of the logarithmic curve of compound remaining (%) versus time, assuming first order kinetics.
# In one such assay of metabolic stability, percent of compound remaining was determined in human liver microsomes after 15, 30, 45, and 60 minutes of incubation, for 2C-B, 2C-B-2-OCD3 (compound I-B-31), and 2C-B-5-OCD3 (compound I-A-31).
Compound,Percent of Compound Remaining Over Time (0 minutes of incubation),rate of metabolism compared with 2C-B,Percent of Compound Remaining Over Time (15 minutes of incubation),Percent of Compound Remaining Over Time (30 minutes of incubation),Percent of Compound Remaining Over Time (45 minutes of incubation),Percent of Compound Remaining Over Time (60 minutes of incubation),"Dunnett's Multiple Comparison Test Mean Diff. (percent remaining, 2C-B minus compound)"
"Cl.[2H]C([2H])([2H])Oc1cc(CCN)c(OC)cc1Br [Compound 2C-B-5-OCD3, 2-(4-bromo-2-methoxy-5-(methoxy-d3)phenyl)ethan-1-amine hydrochloride]",100.0000%,metabolized more quickly than 2C-B,96.2535%,90.6402%,90.7021%,86.9011%,14.31
"Cl.[2H]C([2H])([2H])Oc1cc(Br)c(OC)cc1CCN [Compound 2C-B-2-OCD3, 2-(4-bromo-5-methoxy-2-(methoxy-d3)phenyl)ethan-1-amine hydrochloride]",100.0000%,metabolized more quickly than 2C-B,95.8357%,91.9169%,98.7307%,91.6972%,11.57
"COc1cc(CCN)c(OC)cc1Br [Compound 2C-B, 2-(4-bromo-2,5-dimethoxyphenyl)ethanamine, reference compound]",100.0000%,,104.3970%,109.8740%,105.1500%,116.6050%,
